# Data taken from PubChem BioAssay (NCI).
#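 Tested at 5 concentrations; 48 h exposure; 96-well plates; endpoints linearly interpolated, else capped at highest concentration. GI50 is the concentration that inhibits growth by half. TGI denotes the concentration required for complete inhibition of growth.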
# Columns and labels:
# Experiment in all cases: NCI tumour cell line growth inhibition, 48 h
# KM12 colon = system: KM12 colon
# OVCAR-5 ovarian = system: OVCAR-5 ovarian
# SW-620 colon = system: SW-620 colon
# TK-10 renal = system: TK-10 renal
# K-562 leukemia = system: K-562 leukemia
# OVCAR-3 ovarian = system: OVCAR-3 ovarian
# SF-295 CNS = system: SF-295 CNS
# COLO 205 colon = system: COLO 205 colon
# HOP-62 NSCLC = system: HOP-62 NSCLC
# MOLT-4 leukemia = system: MOLT-4 leukemia
# NCI-H23 lung = system: NCI-H23 lung
# UACC-62 melanoma = system: UACC-62 melanoma
# UO-31 renal = system: UO-31 renal
# SF-268 CNS = system: SF-268 CNS
# SF-539 CNS = system: SF-539 CNS
# U251 CNS = system: U251 CNS
# SK-MEL-2 melanoma = system: SK-MEL-2 melanoma
# SNB-19 CNS = system: SNB-19 CNS
# OVCAR-4 ovarian = system: OVCAR-4 ovarian
# CAKI-1 renal = system: CAKI-1 renal
# HS 578T breast = system: HS 578T breast
# SN12C renal = system: SN12C renal
# HL-60(TB) leukemia = system: HL-60(TB) leukemia
# RXF 393 renal = system: RXF 393 renal
# SR leukemia = system: SR leukemia
# BT-549 breast = system: BT-549 breast
# MALME-3M melanoma = system: MALME-3M melanoma
# A549 NSCLC = system: A549 NSCLC
# CCRF-CEM leukemia = system: CCRF-CEM leukemia
# HCT-116 colon = system: HCT-116 colon
# NCI-H226 lung = system: NCI-H226 lung
# MDA-MB-435 = system: MDA-MB-435
# ACHN renal = system: ACHN renal
# DU-145 prostate = system: DU-145 prostate
# PC-3 prostate = system: PC-3 prostate
# NCI/ADR-RES ovarian = system: NCI/ADR-RES ovarian
# OVCAR-8 ovarian = system: OVCAR-8 ovarian
# NCI-H522 lung = system: NCI-H522 lung
# HCT-15 colon = system: HCT-15 colon
# SNB-75 CNS = system: SNB-75 CNS
# LOX IMVI melanoma = system: LOX IMVI melanoma
# SK-OV-3 ovarian = system: SK-OV-3 ovarian
# UACC-257 melanoma = system: UACC-257 melanoma
# MCF7 breast = system: MCF7 breast
# T-47D breast = system: T-47D breast
# HT29 colon = system: HT29 colon
# NCI-H460 lung = system: NCI-H460 lung
# M14 melanoma = system: M14 melanoma
# MDA-MB-231 breast = system: MDA-MB-231 breast
# HOP-92 NSCLC = system: HOP-92 NSCLC
# SK-MEL-28 melanoma = system: SK-MEL-28 melanoma
# SK-MEL-5 melanoma = system: SK-MEL-5 melanoma
# IGROV1 ovarian = system: IGROV1 ovarian
# A498 renal = system: A498 renal
# HCC-2998 colon = system: HCC-2998 colon
# EKVX NSCLC = system: EKVX NSCLC
# RPMI-8226 leukemia = system: RPMI-8226 leukemia
# 786-0 renal = system: 786-0 renal
smiles,measurement,setting,value
COc1ccc(/C=C2\CS(=O)(=O)C/C(=C\c3ccc(OC)cc3)C2=O)cc1,GI50,KM12 colon,676 nM
same,TGI,KM12 colon,1890 nM
same,GI50,OVCAR-5 ovarian,3160 nM
same,TGI,OVCAR-5 ovarian,10300 nM
same,GI50,SW-620 colon,1320 nM
same,TGI,SW-620 colon,3370 nM
same,GI50,TK-10 renal,2670 nM
same,TGI,TK-10 renal,6910 nM
same,GI50,K-562 leukemia,1160 nM
same,GI50,OVCAR-3 ovarian,1790 nM
same,TGI,OVCAR-3 ovarian,4110 nM
same,GI50,SF-295 CNS,2420 nM
same,TGI,SF-295 CNS,6590 nM
same,GI50,COLO 205 colon,1520 nM
same,TGI,COLO 205 colon,2940 nM
same,GI50,HOP-62 NSCLC,2010 nM
same,TGI,HOP-62 NSCLC,4360 nM
same,GI50,MOLT-4 leukemia,2220 nM
same,TGI,MOLT-4 leukemia,> 22200 nM
same,GI50,NCI-H23 lung,1640 nM
same,TGI,NCI-H23 lung,3320 nM
same,GI50,UACC-62 melanoma,1440 nM
same,TGI,UACC-62 melanoma,2780 nM
same,GI50,UO-31 renal,1450 nM
same,TGI,UO-31 renal,3020 nM
same,GI50,SF-268 CNS,1700 nM
same,TGI,SF-268 CNS,5340 nM
same,GI50,SF-539 CNS,2010 nM
same,TGI,SF-539 CNS,4280 nM
same,GI50,U251 CNS,497 nM
same,TGI,U251 CNS,1850 nM
same,GI50,SK-MEL-2 melanoma,3090 nM
same,TGI,SK-MEL-2 melanoma,> 20900 nM
same,GI50,SNB-19 CNS,4210 nM
same,TGI,SNB-19 CNS,18100 nM
same,GI50,OVCAR-4 ovarian,3190 nM
same,TGI,OVCAR-4 ovarian,> 30800 nM
same,GI50,CAKI-1 renal,2160 nM
same,TGI,CAKI-1 renal,6100 nM
same,GI50,HS 578T breast,3070 nM
same,TGI,HS 578T breast,> 31300 nM
same,GI50,SN12C renal,1780 nM
same,TGI,SN12C renal,4040 nM
same,GI50,HL-60(TB) leukemia,1960 nM
same,TGI,HL-60(TB) leukemia,5730 nM
same,GI50,RXF 393 renal,1480 nM
same,TGI,RXF 393 renal,2900 nM
same,GI50,SR leukemia,182 nM
same,TGI,SR leukemia,423 nM
same,GI50,BT-549 breast,2170 nM
same,TGI,BT-549 breast,5280 nM
same,GI50,MALME-3M melanoma,2410 nM
same,TGI,MALME-3M melanoma,7840 nM
same,GI50,A549 NSCLC,2000 nM
same,TGI,A549 NSCLC,5290 nM
same,GI50,CCRF-CEM leukemia,1350 nM
same,GI50,HCT-116 colon,472 nM
same,TGI,HCT-116 colon,1430 nM
same,GI50,NCI-H226 lung,16800 nM
same,TGI,NCI-H226 lung,> 100000 nM
same,GI50,MDA-MB-435,1400 nM
same,TGI,MDA-MB-435,5290 nM
same,GI50,ACHN renal,1790 nM
same,TGI,ACHN renal,3350 nM
same,GI50,DU-145 prostate,2000 nM
same,TGI,DU-145 prostate,5410 nM
same,GI50,PC-3 prostate,2090 nM
same,TGI,PC-3 prostate,18100 nM
same,GI50,NCI/ADR-RES ovarian,2060 nM
same,TGI,NCI/ADR-RES ovarian,4870 nM
same,GI50,OVCAR-8 ovarian,1210 nM
same,TGI,OVCAR-8 ovarian,6680 nM
same,GI50,NCI-H522 lung,1150 nM
same,TGI,NCI-H522 lung,3020 nM
same,GI50,HCT-15 colon,1840 nM
same,TGI,HCT-15 colon,4820 nM
same,GI50,SNB-75 CNS,8180 nM
same,TGI,SNB-75 CNS,> 47400 nM
same,GI50,LOX IMVI melanoma,646 nM
same,TGI,LOX IMVI melanoma,1910 nM
same,GI50,SK-OV-3 ovarian,3300 nM
same,TGI,SK-OV-3 ovarian,26200 nM
same,GI50,UACC-257 melanoma,1670 nM
same,TGI,UACC-257 melanoma,3630 nM
same,GI50,MCF7 breast,510 nM
same,TGI,MCF7 breast,7830 nM
same,GI50,T-47D breast,2910 nM
same,TGI,T-47D breast,28400 nM
same,GI50,HT29 colon,999 nM
same,GI50,NCI-H460 lung,1900 nM
same,TGI,NCI-H460 lung,4490 nM
same,GI50,M14 melanoma,1610 nM
same,TGI,M14 melanoma,3090 nM
same,GI50,MDA-MB-231 breast,3010 nM
same,TGI,MDA-MB-231 breast,9650 nM
same,GI50,HOP-92 NSCLC,8740 nM
same,TGI,HOP-92 NSCLC,69000 nM
same,GI50,SK-MEL-28 melanoma,1700 nM
same,TGI,SK-MEL-28 melanoma,3170 nM
same,GI50,SK-MEL-5 melanoma,1570 nM
same,TGI,SK-MEL-5 melanoma,2920 nM
same,GI50,IGROV1 ovarian,1750 nM
same,TGI,IGROV1 ovarian,5710 nM
same,GI50,A498 renal,1760 nM
same,TGI,A498 renal,3670 nM
same,GI50,HCC-2998 colon,1710 nM
same,TGI,HCC-2998 colon,3090 nM
same,GI50,EKVX NSCLC,3070 nM
same,TGI,EKVX NSCLC,> 36800 nM
same,GI50,RPMI-8226 leukemia,567 nM
same,TGI,RPMI-8226 leukemia,4890 nM
same,GI50,786-0 renal,1750 nM
same,TGI,786-0 renal,3210 nM
